US20140163061A1, “Methods For Reducing Blood Pressure” (FibroGen, Inc., priority 2008, published 2014)

Columns and labels:
[1] = system: human subjects with chronic kidney disease; assay: Blood pressure in human CKD subjects over a 24 hour period after oral dosing, Example 5; format: in vivo
Description: Hypertension is a common condition in patients with chronic kidney disease. (Agarwal et al. (2005) Hypertension 46:514-520.) The effect of a compound of the present invention on blood pressure in anemic and non-anemic human subjects with advanced stage chronic kidney disease was examined. All study subjects had chronic kidney disease (CKD), defined as having a glomerular filtration rate (GFR)<59 ml/min. Some of these CKD subjects also had anemia, defined as having hemoglobin (Hb) levels<11 g/dL. Subjects were orally administered compound A or a placebo two or three times per week for four weeks. Blood pressure readings (i.e. systolic, diastolic, and mean arterial pressure) were taken at various times with a sphygmomanometer according to standard assessments. In one series of experiments, the effect of methods and medicaments of the present invention on blood pressure in anemic and non-anemic subjects with advanced stage chronic kidney disease was examined over a 24 hour period. Subjects were orally administered compound A or a placebo and blood pressure readings were taken at 1, 2, 3, 4, 6, 12, and 24 hours following treatment. […] Table 3, Table 4, and Table 5 below show hourly changes in mean arterial pressure (MAP), systolic blood pressure (SBP), and diastolic blood pressure (DBP) following oral administration of […] to human CKD subjects.

[2] = system: human subjects with chronic kidney disease; assay: Blood pressure in human CKD subjects over a four week period, weekly readings, Example 6; format: in vivo
Description: Hypertension is a common condition in patients with chronic kidney disease. (Agarwal et al. (2005) Hypertension 46:514-520.) The effect of a compound of the present invention on blood pressure in anemic and non-anemic human subjects with advanced stage chronic kidney disease was examined. All study subjects had chronic kidney disease (CKD), defined as having a glomerular filtration rate (GFR)<59 ml/min. Some of these CKD subjects also had anemia, defined as having hemoglobin (Hb) levels<11 g/dL. Subjects were orally administered compound A or a placebo two or three times per week for four weeks. Blood pressure readings (i.e. systolic, diastolic, and mean arterial pressure) were taken at various times with a sphygmomanometer according to standard assessments. In another series of experiments, the effects of a medicament of the present invention on blood pressure in anemic and non-anemic subjects with chronic kidney disease were determined over a four week period. All subjects were orally administered compound A or a placebo two or three-times per week for four weeks and blood pressure readings were taken weekly. Table 6, Table 7, and Table 8 below show weekly changes in mean arterial pressure (MAP), systolic blood pressure (SBP), and diastolic blood pressure (DBP) following oral administration of compound A to human CKD subjects.

With `Cc1nc(C(=O)NCC(=O)O)c(O)c2ccc(Oc3ccccc3)cc12` [A, [(4-hydroxy-1-methyl-7-phenoxy-isoquinoline-3-carbonyl)-amino]-acetic acid] the “Mean change from Baseline Diastolic BP (mmHg)” value ([1]; All Subjects, 3 hour) was −5.45 mmHg, the “Mean change from Baseline MAP (mmHg)” value ([1]; All Subjects, 3 hour) was −4.35 mmHg and the “Mean change from Baseline Systolic BP (mmHg)” value ([1]; All Subjects, 3 hour) was −2.09 mmHg. For the same compound, the “Mean change from Baseline Diastolic BP (mmHg)” value ([1]; All Subjects, 4 hour) was −6.36 mmHg, the “Mean change from Baseline MAP (mmHg)” value ([1]; All Subjects, 4 hour) was −6.60 mmHg and the “Mean change from Baseline Systolic BP (mmHg)” value ([1]; All Subjects, 4 hour) was −7.00 mmHg. For the same compound, the “Mean change from Baseline Diastolic BP (mmHg)” value ([1]; All Subjects, 6 hour) was −7.00 mmHg, the “Mean change from Baseline MAP (mmHg)” value ([1]; All Subjects, 6 hour) was −9.18 mmHg and the “Mean change from Baseline Systolic BP (mmHg)” value ([1]; All Subjects, 6 hour) was −13.45 mmHg. For the same compound, the “Mean change from Baseline Diastolic BP (mmHg)” value ([1]; All Subjects, 12 hour) was −2.55 mmHg, the “Mean change from Baseline MAP (mmHg)” value ([1]; All Subjects, 12 hour) was −3.29 mmHg and the “Mean change from Baseline Systolic BP (mmHg)” value ([1]; All Subjects, 12 hour) was −4.73 mmHg. The “Mean change from Baseline Diastolic BP (mmHg)” value ([1]; All Subjects, 24 hour) was −1.55 mmHg, the “Mean change from Baseline MAP (mmHg)” value ([1]; All Subjects, 24 hour) was −2.55 mmHg and the “Mean change from Baseline Systolic BP (mmHg)” value ([1]; All Subjects, 24 hour) was −4.45 mmHg. For the same compound, the “Mean change from Baseline Diastolic BP (mmHg)” value ([1]; Anemic, 3 hour) was −13.67 mmHg, the “Mean change from Baseline MAP (mmHg)” value ([1]; Anemic, 3 hour) was −11.10 mmHg and the “Mean change from Baseline Systolic BP (mmHg)” value ([1]; Anemic, 3 hour) was −6.33 mmHg. The “Mean change from Baseline Diastolic BP (mmHg)” value ([1]; Anemic, 4 hour) was −12.67 mmHg, the “Mean change from Baseline MAP (mmHg)” value ([1]; Anemic, 4 hour) was −14.67 mmHg and the “Mean change from Baseline Systolic BP (mmHg)” value ([1]; Anemic, 4 hour) was −19.00 mmHg. For the same compound, the “Mean change from Baseline Diastolic BP (mmHg)” value ([1]; Anemic, 6 hour) was −10.00 mmHg, the “Mean change from Baseline MAP (mmHg)” value ([1]; Anemic, 6 hour) was −12.33 mmHg and the “Mean change from Baseline Systolic BP (mmHg)” value ([1]; Anemic, 6 hour) was −17.33 mmHg. For the same compound, the “Mean change from Baseline Diastolic BP (mmHg)” value ([1]; Anemic, 12 hour) was −5.00 mmHg, the “Mean change from Baseline MAP (mmHg)” value ([1]; Anemic, 12 hour) was −2.00 mmHg and the “Mean change from Baseline Systolic BP (mmHg)” value ([1]; Anemic, 12 hour) was 3.67 mmHg. For the same compound, the “Mean change from Baseline Diastolic BP (mmHg)” value ([1]; Anemic, 24 hour) was −3.33 mmHg, the “Mean change from Baseline MAP (mmHg)” value ([1]; Anemic, 24 hour) was −3.77 mmHg and the “Mean change from Baseline Systolic BP (mmHg)” value ([1]; Anemic, 24 hour) was −5.00 mmHg. For the same compound, the “Mean change from Baseline Diastolic BP (mmHg)” value ([1]; Non-Anemic, 3 hour) was −2.38 mmHg, the “Mean change from Baseline MAP (mmHg)” value ([1]; Non-Anemic, 3 hour) was −3.81 mmHg and the “Mean change from Baseline Systolic BP (mmHg)” value ([1]; Non-Anemic, 3 hour) was −0.50 mmHg. For the same compound, the “Mean change from Baseline Diastolic BP (mmHg)” value ([1]; Non-Anemic, 4 hour) was −4.00 mmHg, the “Mean change from Baseline MAP (mmHg)” value ([1]; Non-Anemic, 4 hour) was −3.58 mmHg and the “Mean change from Baseline Systolic BP (mmHg)” value ([1]; Non-Anemic, 4 hour) was −2.50 mmHg. The “Mean change from Baseline Diastolic BP (mmHg)” value ([1]; Non-Anemic, 6 hour) was −5.88 mmHg, the “Mean change from Baseline MAP (mmHg)” value ([1]; Non-Anemic, 6 hour) was −8.00 mmHg and the “Mean change from Baseline Systolic BP (mmHg)” value ([1]; Non-Anemic, 6 hour) was −12.00 mmHg. The “Mean change from Baseline Diastolic BP (mmHg)” value ([1]; Non-Anemic, 12 hour) was −1.63 mmHg, the “Mean change from Baseline MAP (mmHg)” value ([1]; Non-Anemic, 12 hour) was −3.78 mmHg and the “Mean change from Baseline Systolic BP (mmHg)” value ([1]; Non-Anemic, 12 hour) was −7.88 mmHg. For the same compound, the “Mean change from Baseline Diastolic BP (mmHg)” value ([1]; Non-Anemic, 24 hour) was −0.88 mmHg, the “Mean change from Baseline MAP (mmHg)” value ([1]; Non-Anemic, 24 hour) was −8.00 mmHg and the “Mean change from Baseline Systolic BP (mmHg)” value ([1]; Non-Anemic, 24 hour) was −4.25 mmHg. The “blood pressure at 1 and 2 hours post dosing” value ([1]; all CKD subjects, oral, same with placebo, data not shown) was “small increases in blood pressure”, the “Mean change from Baseline Diastolic BP (mmHg)” value ([2]; All Subjects, Week 1) was −3.66 mmHg and the “Mean change from Baseline MAP (mmHg)” value ([2]; All Subjects, Week 1) was −4.28 mmHg. The “Mean change from Baseline Systolic BP (mmHg)” value ([2]; All Subjects, Week 1) was −5.45 mmHg, the “Mean change from Baseline Diastolic BP (mmHg)” value ([2]; All Subjects, Week 2) was −3.37 mmHg and the “Mean change from Baseline MAP (mmHg)” value ([2]; All Subjects, Week 2) was −5.44 mmHg. For the same compound, the “Mean change from Baseline Systolic BP (mmHg)” value ([2]; All Subjects, Week 2) was −9.47 mmHg, the “Mean change from Baseline Diastolic BP (mmHg)” value ([2]; All Subjects, Week 3) was −1.53 mmHg and the “Mean change from Baseline MAP (mmHg)” value ([2]; All Subjects, Week 3) was −4.03 mmHg. The “Mean change from Baseline Systolic BP (mmHg)” value ([2]; All Subjects, Week 3) was −8.97 mmHg, the “Mean change from Baseline Diastolic BP (mmHg)” value ([2]; All Subjects, Week 4) was −1.54 mmHg and the “Mean change from Baseline MAP (mmHg)” value ([2]; All Subjects, Week 4) was −2.85 mmHg. For the same compound, the “Mean change from Baseline Systolic BP (mmHg)” value ([2]; All Subjects, Week 4) was −5.54 mmHg, the “Mean change from Baseline Diastolic BP (mmHg)” value ([2]; Anemic, Week 1) was −4.43 mmHg and the “Mean change from Baseline MAP (mmHg)” value ([2]; Anemic, Week 1) was −4.57 mmHg. The “Mean change from Baseline Systolic BP (mmHg)” value ([2]; Anemic, Week 1) was −4.80 mmHg, the “Mean change from Baseline Diastolic BP (mmHg)” value ([2]; Anemic, Week 2) was −3.77 mmHg and the “Mean change from Baseline MAP (mmHg)” value ([2]; Anemic, Week 2) was −6.13 mmHg. The “Mean change from Baseline Systolic BP (mmHg)” value ([2]; Anemic, Week 2) was −10.77 mmHg, the “Mean change from Baseline Diastolic BP (mmHg)” value ([2]; Anemic, Week 3) was −2.50 mmHg and the “Mean change from Baseline MAP (mmHg)” value ([2]; Anemic, Week 3) was −5.47 mmHg. For the same compound, the “Mean change from Baseline Systolic BP (mmHg)” value ([2]; Anemic, Week 3) was −11.40 mmHg, the “Mean change from Baseline Diastolic BP (mmHg)” value ([2]; Anemic, Week 4) was −1.13 mmHg and the “Mean change from Baseline MAP (mmHg)” value ([2]; Anemic, Week 4) was −3.08 mmHg. For the same compound, the “Mean change from Baseline Systolic BP (mmHg)” value ([2]; Anemic, Week 4) was −7.25 mmHg, the “Mean change from Baseline Diastolic BP (mmHg)” value ([2]; Non-Anemic, Week 1) was −2.00 mmHg and the “Mean change from Baseline MAP (mmHg)” value ([2]; Non-Anemic, Week 1) was −3.67 mmHg. The “Mean change from Baseline Systolic BP (mmHg)” value ([2]; Non-Anemic, Week 1) was −6.86 mmHg, the “Mean change from Baseline Diastolic BP (mmHg)” value ([2]; Non-Anemic, Week 2) was −2.50 mmHg and the “Mean change from Baseline MAP (mmHg)” value ([2]; Non-Anemic, Week 2) was −3.95 mmHg. For the same compound, the “Mean change from Baseline Systolic BP (mmHg)” value ([2]; Non-Anemic, Week 2) was −6.67 mmHg, the “Mean change from Baseline Diastolic BP (mmHg)” value ([2]; Non-Anemic, Week 3) was 0.40 mmHg and the “Mean change from Baseline MAP (mmHg)” value ([2]; Non-Anemic, Week 3) was −1.14 mmHg. The “Mean change from Baseline Systolic BP (mmHg)” value ([2]; Non-Anemic, Week 3) was −4.10 mmHg, the “Mean change from Baseline Diastolic BP (mmHg)” value ([2]; Non-Anemic, Week 4) was −2.20 mmHg and the “Mean change from Baseline MAP (mmHg)” value ([2]; Non-Anemic, Week 4) was −2.48 mmHg. For the same compound, the “Mean change from Baseline Systolic BP (mmHg)” value ([2]; Non-Anemic, Week 4) was −2.80 mmHg.
